Laboratory results reported in patent publication US11807644B2 (PMV Pharmaceuticals, Inc., priority 2020, dated 2023).

These compounds were tested against T1, recombinant His-tag Y220C p53 DBD protein (Homo sapiens, UniProt P04637, Y220C) (assay: In vitro DNA binding activity assay (TR-FRET): binding of His-tag Y220C p53 DBD to biotin-labeled consensus DNA). Details: SC150 = concentration to increase DNA binding by […], His-tag Y220C p53 DBD, biotin-labeled consensus DNA.
T1 construct: recombinant His-tag Y220C p53 DBD protein (amino acids #˜94-312)
Assay type: biochemical

| Compound | Y220C SC150 (μM) |
| --- | --- |
| CN1CCC(Nc2cccc3c2cc(-c2nnc(CNC(=O)[C@H]4C[C@@H]4c4ccccc4)s2)n3CC(F)(F)F)CC1 (racemic) [Compound 53B, (+/−)-(1S,2S)-N-[(5-{4-[(1-methylpiperidin-4-yl)amino]-1-(2,2,2-trifluoroethyl)-1H-indol-2-yl}-1,3,4-thiadiazol-2-yl)methyl]-2-phenylcyclopropane-1-carboxamide] | * (* = 0 μM ≤ SC150 < 0.1 μM) |
| CN1CC[C@@H](Nc2cccc3c2cc(-c2noc(CNC(=O)c4ccc5c(ccn5C)c4)n2)n3CC(F)(F)F)[C@@H](F)C1 [Compound 259B, N-{[3-(4-{[(3S,4R)-3-fluoro-1-methylpiperidin-4-yl]amino}-1-(2,2,2-trifluoroethyl)-1H-indol-2-yl)-1,2,4-oxadiazol-5-yl]methyl}-1-methyl-1H-indole-5-carboxamide] | * (* = 0 μM ≤ SC150 < 0.1 μM) |
| C[C@H]1C[C@H]1C(=O)NCc1nnc(-c2cc3c(NC4CCN(C)CC4)cccc3n2CC(F)(F)F)s1 (racemic) [Compound 33B, (+/−)-(1R,2S)-2-methyl-N-[(5-{4-[(1-methylpiperidin-4-yl)amino]-1-(2,2,2-trifluoroethyl)-1H-indol-2-yl}-1,3,4-thiadiazol-2-yl)methyl]cyclopropane-1-carboxamide] | ** (** = 0.1 μM ≤ SC150 < 0.5 μM) |
| CCOC1CCCC1n1ccc(C(=O)NCc2nc(-c3cc4c(N[C@@H]5CCN(C)C[C@@H]5F)cccc4n3CC(F)(F)F)no2)c1 (stereo in doubt) [Compound 376B, 1-[(1R,2R)-2-ethoxycyclopentyl]-N-{[3-(4-{[(3S,4R)-3-fluoro-1-methylpiperidin-4-yl]amino}-1-(2,2,2-trifluoroethyl)-1H-indol-2-yl)-1,2,4-oxadiazol-5-yl]methyl}-1H-pyrrole-3-carboxamide] | * (* = 0 μM ≤ SC150 < 0.1 μM) |
| CN1CCC(Nc2cccc3c2cc(-c2cc(N)[nH]n2)n3CC(F)(F)F)CC1 [Compound 21B, 2-(5-amino-1H-pyrazol-3-yl)-N-(1-methylpiperidin-4-yl)-1-(2,2,2-trifluoroethyl)-1H-indol-4-amine] | **** (**** = 1 μM ≤ SC150 < 10 μM) |
| CC(C)(C)n1ccc(C(=O)NCc2nc(-c3cc4c(NC5CCC(F)(F)CC5)cccc4n3CC(F)(F)F)no2)c1 [Compound 328B, 1-tert-butyl-N-[(3-{4-[(4,4-difluorocyclohexyl)amino]-1-(2,2,2-trifluoroethyl)-1H-indol-2-yl}-1,2,4-oxadiazol-5-yl)methyl]-1H-pyrrole-3-carboxamide] | * (* = 0 μM ≤ SC150 < 0.1 μM) |
| CN1CC[C@H](Nc2cccc3c2cc(-c2nnc(CNC(=O)c4cccs4)o2)n3CC(F)(F)F)[C@H](F)C1 (racemic) [Compound 120B, (+/−)-N-{[5-(4-{[(3R, 4S)-3-fluoro-1-methylpiperidin-4-yl]amino}-1-(2,2,2-trifluoroethyl)-1H-indol-2-yl)-1,3,4-oxadiazol-2-yl]methyl}thiophene-2-carboxamide] | ** (** = 0.1 μM ≤ SC150 < 0.5 μM) |
| CN1CC[C@@H](Nc2cccc3c2cc(-c2noc(CNC(=O)c4cnc(N5CCOCC5)s4)n2)n3CC(F)(F)F)[C@@H](F)C1 [Compound 453B, N-{[3-(4-{[(3S,4R)-3-fluoro-1-methylpiperidin-4-yl]amino}-1-(2,2,2-trifluoroethyl)-1H-indol-2-yl)-1,2,4-oxadiazol-5-yl]methyl}-2-(morpholin-4-yl)-1,3-thiazole-5-carboxamide] | * (* = 0 μM ≤ SC150 < 0.1 μM) |
| CC(C)(C)N1CC[C@@H](Nc2cccc3c2cc(-c2noc(CNC(=O)c4ccn(C(C)(C)C)c4)n2)n3CC(F)(F)F)[C@@H](F)C1 [Compound 393B, 1-tert-butyl-N-{[3-(4-{[(3S,4R)-1-tert-butyl-3-fluoropiperidin-4-yl]amino}-1-(2,2,2-trifluoroethyl)-1H-indol-2-yl)-1,2,4-oxadiazol-5-yl]methyl}-1H-pyrrole-3-carboxamide] | * (* = 0 μM ≤ SC150 < 0.1 μM) |
| CN(C)C[C@@H]1C[C@H]1C(=O)NCc1nc(-c2cc3c(N[C@@H]4CCN(C)C[C@@H]4F)cccc3n2CC(F)(F)F)no1 [Compound 264B, (1R,2R)-2-[(dimethylamino)methyl]-N-{[3-(4-{[(3S,4R)-3-fluoro-1-methylpiperidin-4-yl]amino}-1-(2,2,2-trifluoroethyl)-1H-indol-2-yl)-1,2,4-oxadiazol-5-yl]methyl}cyclopropane-1-carboxamide] | * (* = 0 μM ≤ SC150 < 0.1 μM) |
| O=C(NCc1nc(-c2cc3c(NC4CCOCC4)cccc3n2CC(F)(F)F)no1)C1CC1 [Compound 159B, N-[(3-{4-[(oxan-4-yl)amino]-1-(2,2,2-trifluoroethyl)-1H-indol-2-yl}-1,2,4-oxadiazol-5-yl)methyl]cyclopropanecarboxamide] | * (* = 0 μM ≤ SC150 < 0.1 μM) |
| CCN1CC[C@@H](Nc2cccc3c2cc(-c2noc(CNC(=O)c4ccn(C5CCOCC5)c4)n2)n3CC(F)(F)F)[C@@H](F)C1 [Compound 333B, N-{[3-(4-{[(3S,4R)-1-ethyl-3-fluoropiperidin-4-yl]amino}-1-(2,2,2-trifluoroethyl)-1H-indol-2-yl)-1,2,4-oxadiazol-5-yl]methyl}-1-(oxan-4-yl)-1H-pyrrole-3-carboxamide] | * (* = 0 μM ≤ SC150 < 0.1 μM) |
| COCc1cc(C(=O)NCc2nc(-c3cc4c(N[C@@H]5CCN(C)C[C@@H]5F)cccc4n3CC(F)(F)F)no2)cc(C)n1 [Compound 551B, N-{[3-(4-{[(3S,4R)-3-fluoro-1-methylpiperidin-4-yl]amino}-1-(2,2,2-trifluoroethyl)-1H-indol-2-yl)-1,2,4-oxadiazol-5-yl]methyl}-2-(methoxymethyl)-6-methylpyridine-4-carboxamide] | * (* = 0 μM ≤ SC150 < 0.1 μM) |
| CN1CC[C@@H](Nc2cccc3c2cc(-c2noc(CNC(=O)c4cn5ccccc5n4)n2)n3CC(F)(F)F)[C@@H](F)C1 [Compound 217B, N-{[3-(4-{[(3S,4R)-3-fluoro-1-methylpiperidin-4-yl]amino}-1-(2,2,2-trifluoroethyl)-1H-indol-2-yl)-1,2,4-oxadiazol-5-yl]methyl}imidazo[1,2-a]pyridine-2-carboxamide] | * (* = 0 μM ≤ SC150 < 0.1 μM) |
| CN1CCC(Nc2cccc3c2cc(-c2noc(CNC(=O)c4ccccc4)n2)n3CC(F)(F)F)CC1 [Compound 144B, N-[(3-{4-[(1-methylpiperidin-4-yl)amino]-1-(2,2,2-trifluoroethyl)-1H-indol-2-yl}-1,2,4-oxadiazol-5-yl)methyl]benzamide] | * (* = 0 μM ≤ SC150 < 0.1 μM) |
| CN1CC[C@@H](Nc2cccc3c2cc(-c2noc(CNC(=O)[C@H]4C[C@@H](C)C4)n2)n3CC(F)(F)F)[C@@H](F)C1 [Compound 223B, (1r,3s)-N-{[3-(4-{[(3S,4R)-3-fluoro-1-methylpiperidin-4-yl]amino}-1-(2,2,2-trifluoroethyl)-1H-indol-2-yl)-1,2,4-oxadiazol-5-yl]methyl}-3-methylcyclobutane-1-carboxamide] | * (* = 0 μM ≤ SC150 < 0.1 μM) |
| CN1CC[C@@H](Nc2cccc3c2cc(-c2noc(CNC(=O)c4csc(CN5CCCC5)c4)n2)n3CC(F)(F)F)[C@@H](F)C1 [Compound 466B] | * (* = 0 μM ≤ SC150 < 0.1 μM) |
| CN1CC[C@@H](Nc2cccc3c2cc(-c2noc(CNC(=O)c4ccsc4Cl)n2)n3CC(F)(F)F)[C@@H](F)C1 [Compound 215B, 2-chloro-N-{[3-(4-{[(3S,4R)-3-fluoro-1-methylpiperidin-4-yl]amino}-1-(2,2,2-trifluoroethyl)-1H-indol-2-yl)-1,2,4-oxadiazol-5-yl]methyl}thiophene-3-carboxamide] | * (* = 0 μM ≤ SC150 < 0.1 μM) |
| CN1CC[C@@H](Nc2cccc3c2cc(-c2noc(CNC(=O)c4cn(C5CC5)cn4)n2)n3CC(F)(F)F)[C@@H](F)C1 [Compound 327B, 1-cyclopropyl-N-{[3-(4-{[(3S,4R)-3-fluoro-1-methylpiperidin-4-yl]amino}-1-(2,2,2-trifluoroethyl)-1H-indol-2-yl)-1,2,4-oxadiazol-5-yl]methyl}-1H-imidazole-4-carboxamide] | * (* = 0 μM ≤ SC150 < 0.1 μM) |
| CN1CC[C@@H](Nc2cccc3c2cc(-c2noc(CNC(=O)c4cn(C5(C)CCOCC5)cn4)n2)n3CC(F)(F)F)[C@@H](F)C1 [Compound 433B, N-{[3-(4-{[(3S,4R)-3-fluoro-1-methylpiperidin-4-yl]amino}-1-(2,2,2-trifluoroethyl)-1H-indol-2-yl)-1,2,4-oxadiazol-5-yl]methyl}-1-(4-methyloxan-4-yl)-1H-imidazole-4-carboxamide] | * (* = 0 μM ≤ SC150 < 0.1 μM) |

Same assay, conditions: concentration to increase DNA binding by […], incubated at either 27° C. or 29° C. for 60 min

| Compound | SC150 (μM) |
| --- | --- |
| FC(F)(F)Cn1c(-c2ccc(CNc3cccc(Cl)c3)cc2)cc2c(NC3CCN(C4CCOCC4)CC3)cccc21 [Compound 34A, 2-(4-{[(3-chlorophenyl)amino]methyl}phenyl)-N-[1-(oxan-4-yl)piperidin-4-yl]-1-(2,2,2-trifluoroethyl)-1H-indol-4-amine] | ++++ (++++ = 10 μM ≤ SC150 < 35 μM) |
| O=C(O)c1cccc(-c2cc3c(NC4CCS(=O)(=O)CC4)cccc3n2CC(F)(F)F)c1 [Compound 20A, 3-{4-[(1,1-dioxo-1λ^6-thian-4-yl)amino]-1-(2,2,2-trifluoroethyl)-1H-indol-2-yl}benzoic acid] | ++++ (++++ = 10 μM ≤ SC150 < 35 μM) |
| Cc1ccc(-c2cc3c(NC4CCS(=O)(=O)CC4)cccc3n2CC(F)(F)F)c(F)c1 [Compound 11A, 4-{[2-(2-fluoro-4-methylphenyl)-1-(2,2,2-trifluoroethyl)-1H-indol-4-yl]amino}-1λ^6-thiane-1,1-dione] | ++++ (++++ = 10 μM ≤ SC150 < 35 μM) |
| Cc1ccc(NCc2ccc(-c3cc4cc(CNC5CCN(C)CC5)ccc4n3CC(F)(F)F)cc2)cn1 [Compound 35A, 6-methyl-N-{[4-(5-{[(1-methylpiperidin-4-yl)amino]methyl}-1-(2,2,2-trifluoroethyl)-1H-indol-2-yl)phenyl]methyl}pyridin-3-amine] | +++ (+++ = 5 μM ≤ SC150 < 10 μM) |
